System: Caco-2 cell monolayers
Test: Trans-epithelial transport of D-[14C]-mannitol and L-[3H]-proline in presence of DPV
Assay type: cell-based
Details: 30 μg/ml
Procedure: Trans-epithelial transport experiments were carried out.

Sequence: SSRRARRSPRHLGSG (listed as Homo sapiens) [DPV10]
- effect on amounts of D-[14C]-mannitol and L-[3H]-proline associated with the cells at the end of the experiment (Caco-2, 8 hours, FIG. 4): did not affect
- effect on transport of D-[14C]-mannitol or L-[3H]-proline (Caco-2, FIG. 3): did not affect

— US7112562B2 (Diatos, S.A., priority 2001, dated 2006)
